# Laboratory results taken from patent US7291730B2, “Pyrimidine compounds and their use” (Sumitomo Chemical Company, Limited, priority 2000, dated 2007).
# Tested on: Western Flower Thrips (Frankliniella occidentalis)
# Assay: Insecticidal test against western flower thrips, sprayed cucumber leaves (Test Example 3)
# Assay type: in vivo
# Settings: 500 ppm, sprayed 20 ml/cup onto cucumber, thirty larvae on cut first foliage leaves, after 7 days
# Method: A formulation of a test compound obtained in Formulation Example 5 was diluted with water so that the active ingredient concentration came to 500 ppm to prepare a test spray solution. The seeds of cucumber were planted in polyethylene cups and grown until their first foliage leaves developed, and the above test spray solution was sprayed at the rate of 20 ml/cup onto these cucumber plants. After the chemical solution sprayed onto the cucumber plants was dried, the first foliage leaves were cut off and placed on a water-containing filter paper (70 mm in diameter) in a polyethylene cup (110 mm in diameter). Thirty larvae of western flower thrips (Frankliniella occidentalis) were set free in the polyethylene cup, and the lid was put on the polyethylene cup. After 7 days, the number of surviving insects was examined.
row,SMILES,number of surviving insects
1,CC#CCOc1cc(OCC#CCC)ncn1 [(6)],zero
2,C#CCOc1cc(OCC#CCC)ncn1 [(5)],zero
3,CC#CCOc1cc(Cc2ccccc2F)ncn1 [(88)],zero
4,C#CCOc1cc(OCC#CC)ncn1 [(2)],zero
5,C#CCOc1cc(Oc2ccc(C(F)(F)F)cc2)ncn1 [(20)],zero
